From US11028079B2 (ConverGene LLC, priority 2015, dated 2021) come the findings set out here.

Each structure is given as a SMILES string. A value given as a limit tells only on which side of the number the result lay.

This experiment concerns the target T1, BRD4 bromodomains (Homo sapiens, UniProt O60885).
T1 construct: fused on or other part: T7 phage capsid protein (phage-display fusion; the phage DNA is read out by qPCR)
Description: BROMOscan bromodomain competition binding assay (DiscoveRx). The settings on record: Kd from 11 compound concentrations ranging from 0 to 10 μM, read-out: BROMOscan Relative Activity. The method in brief: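 Compounds in 0.1% DMSO/0.9% MEG competed with a solid-phase acetylated peptide for T7 phage-fused BRD4 bromodomains, with the retained bromodomain measured by qPCR.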
On to `Cc1noc(C)c1-c1ccc2nc(C(=O)NC3CCS(=O)(=O)CC3)cc(NCc3cccc(Cl)c3)c2c1` [Example 235, 4-((3-chlorobenzyl)amino)-6-(3,5-dimethylisoxazol-4-yl)-N-(1,1-dioxidotetrahydro-2H-thiopyran-4-yl)quinoline-2-carboxamide], for which the Kd is less than 500 nM.

`Cc1noc(C)c1-c1ccc2nc(C(=O)NC3CCOCC3)cc(NCc3cccc(Cl)c3)c2c1` [Example 236, 4-((3-chlorobenzyl)amino)-6-(3,5-dimethylisoxazol-4-yl)-N-(tetrahydro-2H-pyran-4-yl)quinoline-2-carboxamide]: the Kd is less than 500 nM.

Consider `Cc1noc(C)c1-c1ccc2nc(C(=O)NC3CN(C)C3)nc(NCc3cncc(Cl)c3)c2c1` [Example 237, 4-(((5-chloropyridin-3-yl)methyl)amino)-6-(3,5-dimethylisoxazol-4-yl)-N-(1-methylazetidin-3-yl)quinazoline-2-carboxamide], for which the Kd is less than 500 nM.

For `Cc1nn(C)cc1CNC(=O)c1nc(NCc2cncc(Cl)c2)c2cc(-c3c(C)noc3C)ccc2n1` [Example 238, 4-(((5-chloropyridin-3-yl)methyl)amino)-N-((1,3-dimethyl-1H-pyrazol-4-yl)methyl)-6-(3,5-dimethylisoxazol-4-yl)quinazoline-2-carboxamide], the Kd was less than 500 nM.

Regarding `Cc1noc(C)c1-c1ccc2nc(C(=O)NC3CCS(=O)(=O)CC3)nc(NCc3cncc(Cl)c3)c2c1` [Example 239, 4-(((5-chloropyridin-3-yl)methyl)amino)-6-(3,5-dimethylisoxazol-4-yl)-N-(1,1-dioxidotetrahydro-2H-thiopyran-4-yl)quinazoline-2-carboxamide], the Kd was less than 500 nM.

`Cc1noc(C)c1-c1ccc2nc(C(=O)NCC3CN(C)C3)nc(NC3(c4cccc(Cl)c4)CC3)c2c1` [Example 240, 4-((1-(3-chlorophenyl)cyclopropyl)amino)-6-(3,5-dimethylisoxazol-4-yl)-N-((1-methylazetidin-3-yl)methyl)quinazoline-2-carboxamide]: the Kd is less than 500 nM.

For `Cc1noc(C)c1-c1ccc2nc(N3CCS(=O)(=O)CC3)nc(NCc3cncc(Cl)c3)c2c1` [Example 241, 4-(4-(((5-chloropyridin-3-yl)methyl)amino)-6-(3,5-dimethylisoxazol-4-yl)quinazolin-2-yl)thiomorpholine 1,1-dioxide], the Kd was less than 500 nM.

With `Cc1noc(C)c1-c1ccc2nc(C(=O)NC3CN(C)C3)nc(NC3(c4cccc(Cl)c4)CC3)c2c1` [Example 242, 4-((1-(3-chlorophenyl)cyclopropyl)amino)-6-(3,5-dimethylisoxazol-4-yl)-N-(1-methylazetidin-3-yl)quinazoline-2-carboxamide], the Kd is less than 500 nM.

As to `Cc1noc(C)c1-c1ccc2nc(N3CCS(=O)(=O)CC3)nc(NCc3cccc(Cl)c3)c2c1` [Example 243, 4-(4-((3-chlorobenzyl)amino)-6-(3,5-dimethylisoxazol-4-yl)quinazolin-2-yl)thiomorpholine 1,1-dioxide], the Kd lay within 500 to 5000 nM.

In the case of `Cc1noc(C)c1-c1ccc2nc(N3CCN(C(=O)N(C)C)CC3)nc(NCc3cccc(Cl)c3)c2c1` [Example 244, 4-(4-((3-chlorobenzyl)amino)-6-(3,5-dimethylisoxazol-4-yl)quinazolin-2-yl)-N,N-dimethylpiperazine-1-carboxamide], the Kd was less than 500 nM.

For the compound `Cc1nn(C)cc1CNC(=O)c1nc(NC2(c3cccc(Cl)c3)CC2)c2cc(-c3c(C)noc3C)ccc2n1` [Example 245, 4-((1-(3-chlorophenyl)cyclopropyl)amino)-N-((1,3-dimethyl-1H-pyrazol-4-yl)methyl)-6-(3,5-dimethylisoxazol-4-yl)quinazoline-2-carboxamide], the Kd is less than 500 nM.

Turning to `Cc1noc(C)c1-c1ccc2nc(C(=O)NC3CCS(=O)(=O)CC3)nc(NC3(c4cccc(Cl)c4)CC3)c2c1` [Example 246, 4-((1-(3-chlorophenyl)cyclopropyl)amino)-6-(3,5-dimethylisoxazol-4-yl)-N-(1,1-dioxidotetrahydro-2H-thiopyran-4-yl)quinazoline-2-carboxamide], the Kd was less than 500 nM.

Take `Cc1noc(C)c1-c1ccc2nc(C(=O)NC3CCOCC3)nc(NC3(c4cccc(Cl)c4)CC3)c2c1` [Example 247, 4-((1-(3-chlorophenyl)cyclopropyl)amino)-6-(3,5-dimethylisoxazol-4-yl)-N-(tetrahydro-2H-pyran-4-yl)quinazoline-2-carboxamide]: the Kd is less than 500 nM.

In the case of `Cc1noc(C)c1-c1ccc2nc(N3CCN(C(=O)N(C)C)CC3)nc(NCc3cncc(Cl)c3)c2c1` [Example 248, 4-(4-(((5-chloropyridin-3-yl)methyl)amino)-6-(3,5-dimethylisoxazol-4-yl)quinazolin-2-yl)-N,N-dimethylpiperazine-1-carboxamide], the Kd is less than 500 nM.

Turning to `Cc1cc(CNC(=O)c2nc(NCc3cccc(Cl)c3)c3cc(-c4c(C)noc4C)ccc3n2)ccn1` [Example 249, 4-((3-chlorobenzyl)amino)-6-(3,5-dimethylisoxazol-4-yl)-N-((2-methylpyridin-4-yl)methyl)quinazoline-2-carboxamide], the Kd was less than 500 nM.

For the compound `Cc1noc(C)c1-c1ccc2nc(C(=O)N[C@H]3CC[C@H](O)CC3)nc(NCc3cccc(Cl)c3)c2c1` [Example 250, 4-((3-chlorobenzyl)amino)-6-(3,5-dimethylisoxazol-4-yl)-N-((trans)-4-hydroxycyclohexyl)quinazoline-2-carboxamide], the Kd was less than 500 nM.

In the case of `Cc1noc(C)c1-c1ccc2nc(C(=O)NCc3nccn3C)nc(NCc3cccc(Cl)c3)c2c1` [Example 251, 4-((3-chlorobenzyl)amino)-6-(3,5-dimethylisoxazol-4-yl)-N-((1-methyl-1H-imidazol-2-yl)methyl)quinazoline-2-carboxamide], the Kd was less than 500 nM.

As to `Cc1noc(C)c1-c1ccc2nc(C(=O)NC3CCC(F)(F)CC3)nc(NCc3cccc(Cl)c3)c2c1` [Example 252, 4-((3-chlorobenzyl)amino)-N-(4,4-difluorocyclohexyl)-6-(3,5-dimethylisoxazol-4-yl)quinazoline-2-carboxamide], the Kd lay in the range of 500 to 5000 nM.

For the compound `Cc1noc(C)c1-c1ccc2nc(C(=O)N[C@H]3C[C@H](O)C3)nc(NCc3cccc(Cl)c3)c2c1` [Example 253, 4-((3-chlorobenzyl)amino)-6-(3,5-dimethylisoxazol-4-yl)-N-((trans)-3-hydroxycyclobutyl)quinazoline-2-carboxamide], the Kd was less than 500 nM.

As to `Cc1noc(C)c1-c1ccc2nc(N3CCN(CCN(C)C)CC3)nc(N3CCC(C(=O)O)CC3)c2c1` [Example 254, 1-(2-(4-(2-(dimethylamino)ethyl)piperazin-1-yl)-6-(3,5-dimethylisoxazol-4-yl)quinazolin-4-yl)piperidine-4-carboxylic acid], the Kd was in the range of 500 to 5000 nM.

For `Cc1noc(C)c1-c1ccc2nc(-c3cnn(CCO)c3)nc(N3CCC(C(=O)O)CC3)c2c1` [Example 255, 1-(6-(3,5-dimethylisoxazol-4-yl)-2-(1-(2-hydroxyethyl)-1H-pyrazol-4-yl)quinazolin-4-yl)piperidine-4-carboxylic acid], the Kd was 500 to 5000 nM.

On to `Cc1noc(C)c1-c1ccc2nc(C(=O)NCC3CC(F)(F)C3)nc(NCc3cccc(Cl)c3)c2c1` [Example 256, 4-((3-chlorobenzyl)amino)-N-((3,3-difluorocyclobutyl)methyl)-6-(3,5-dimethylisoxazol-4-yl)quinazoline-2-carboxamide], for which the Kd was in the range of 500 to 5000 nM.

As to `Cc1n[nH]c(C)c1CNC(=O)c1nc(NCc2cccc(Cl)c2)c2cc(-c3c(C)noc3C)ccc2n1` [Example 257, 4-((3-chlorobenzyl)amino)-N-((3,5-dimethyl-1H-pyrazol-4-yl)methyl)-6-(3,5-dimethylisoxazol-4-yl)quinazoline-2-carboxamide], the Kd is less than 500 nM.

For the compound `Cc1ncsc1CNC(=O)c1nc(NCc2cccc(Cl)c2)c2cc(-c3c(C)noc3C)ccc2n1` [Example 258, 4-((3-chlorobenzyl)amino)-6-(3,5-dimethylisoxazol-4-yl)-N-((4-methylthiazol-5-yl)methyl)quinazoline-2-carboxamide], the Kd was less than 500 nM.

For the compound `Cc1noc(C)c1CNC(=O)c1nc(NCc2cccc(Cl)c2)c2cc(-c3c(C)noc3C)ccc2n1` [Example 259, 4-((3-chlorobenzyl)amino)-6-(3,5-dimethylisoxazol-4-yl)-N-((3,5-dimethylisoxazol-4-yl)methyl)quinazoline-2-carboxamide], the Kd was less than 500 nM.

On to `Cc1nc(C)c(CNC(=O)c2nc(NCc3cccc(Cl)c3)c3cc(-c4c(C)noc4C)ccc3n2)s1` [Example 260, 4-((3-chlorobenzyl)amino)-6-(3,5-dimethylisoxazol-4-yl)-N-((2,4-dimethylthiazol-5-yl)methyl)quinazoline-2-carboxamide], for which the Kd is less than 500 nM.

Take `Cc1noc(C)c1-c1ccc2ncnc(N3CCC(C(=O)O)CC3)c2c1` [Example 261, 1-(6-(3,5-dimethylisoxazol-4-yl)quinazolin-4-yl)piperidine-4-carboxylic Acid]: the Kd lay in the range of 500 to 5000 nM.

Regarding `Cc1noc(C)c1-c1ccc2nc(-c3cnn(CC(C)(C)O)c3)nc(N3CCOC[C@@H]3c3ccccc3)c2c1` [Example 262, (S)-1-(4-(6-(3,5-dimethylisoxazol-4-yl)-4-(3-phenylmorpholino)quinazolin-2-yl)-1H-pyrazol-1-yl)-2-methylpropan-2-ol], the Kd was less than 500 nM.

With `Cc1noc(C)c1-c1ccc2nc(-c3cnn(CC(C)(C)O)c3)nc(N3CCOC[C@H]3c3ccccc3)c2c1` [Example 263, (R)-1-(4-(6-(3,5-dimethylisoxazol-4-yl)-4-(3-phenylmorpholino)quinazolin-2-yl)-1H-pyrazol-1-yl)-2-methylpropan-2-ol], the Kd is less than 500 nM.

Turning to `Cc1noc(C)c1-c1ccc2ncnc(N3CCOCC3c3ccccc3)c2c1` (stereo not drawn) [Example 264, 4-(6-(3,5-dimethylisoxazol-4-yl)quinazolin-4-yl)-3-phenylmorpholine], the Kd is less than 500 nM.
